Assay: Visual examination of dissolution of phospholipid and cholesterol in sucrose solution containing t-BuOH during cooling from 80° C.
Type: physicochemical
Conditions: cooled from 80° C.
Method: […] […] The solution was in the white opaque state at 80° C. Next, the temperature control of the water bath was off while still stirred, so that the solution was slowly cooled down at room temperature. It took about 90 min for the temperature of the water bath to be cooled from 80° C. to 35° C. The solution, which was in the white opaque state at 80° C., turned into a slightly pale transparent state around at 72° C., and the transparency persisted until the temperature fell to around 62° C. From around 62° C., the solution started to become white opaque again, turning into a completely white opaque state at 58° C. This change of state was reversible: the similar change of state was observed when the temperature was gradually raised from room temperature.
This state persisted until the temperature fell down to about 35° C., where the solution suddenly changed into a white opaque state.

[1] = 200 mg cholesterol with 380 mg DPPC in 20 mL 10 wt/vol % sucrose solution + 4.25 mL t-BuOH

In the case of `CCCCCCCCCCCCCCCC(=O)OC[C@H](COP(=O)([O-])OCC[N+](C)(C)C)OC(=O)CCCCCCCCCCCCCCC` [DPPC, L-α-dipalmitoylphosphatidylcholine], the “State of the aqueous solution (dissolution), DPPC alone” value (75.9 mg DPPC alone in 4 mL 10 wt/vol % sucrose solution + 0.85 mL t-BuOH) is reported as “transparent state between 80 °C and 50 °C”.

With `CC(C)CCC[C@@H](C)[C@H]1CC[C@H]2[C@@H]3CC=C4C[C@@H](O)CC[C@]4(C)[C@H]3CC[C@]12C` [cholesterol, Cholesterol] the “State of the aqueous solution (dissolution), cholesterol alone” value (40 mg cholesterol alone in 4 mL 10 wt/vol % sucrose solution + 0.85 mL t-BuOH) was “the solution never became transparent at any temperature”, the “Lower temperature of the transparent (dissolved) state of the solution” value [1] was “around 62 °C” and the “Upper temperature of the transparent (dissolved) state of the solution” value [1] was ~72 °C.
